Source: PubChem BioAssay (NCI)
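Results reflect a 48-hour exposure of cells in 96-well plates to compound at five concentrations. Definition used: TGI = concentration required for complete inhibition of growth.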

Key:
Assay in all cases: growth of human tumour cells (NCI), 48 h
786-0 renal = system: 786-0 renal
A549 NSCLC = system: A549 NSCLC
ACHN renal = system: ACHN renal
BT-549 breast = system: BT-549 breast
CAKI-1 renal = system: CAKI-1 renal
COLO 205 colon = system: COLO 205 colon
DU-145 prostate = system: DU-145 prostate
EKVX NSCLC = system: EKVX NSCLC
HCC-2998 colon = system: HCC-2998 colon
HCT-116 colon = system: HCT-116 colon
HCT-15 colon = system: HCT-15 colon
HL-60(TB) leukemia = system: HL-60(TB) leukemia
HOP-62 NSCLC = system: HOP-62 NSCLC
HOP-92 NSCLC = system: HOP-92 NSCLC
HS 578T breast = system: HS 578T breast
HT29 colon = system: HT29 colon
IGROV1 ovarian = system: IGROV1 ovarian
K-562 leukemia = system: K-562 leukemia
KM12 colon = system: KM12 colon
LOX IMVI melanoma = system: LOX IMVI melanoma
M14 melanoma = system: M14 melanoma
MALME-3M melanoma = system: MALME-3M melanoma
MCF7 breast = system: MCF7 breast
MDA-MB-231 breast = system: MDA-MB-231 breast
MDA-MB-435 = system: MDA-MB-435
MDA-N = system: MDA-N
MOLT-4 leukemia = system: MOLT-4 leukemia
NCI-H226 lung = system: NCI-H226 lung
NCI-H23 lung = system: NCI-H23 lung
NCI-H460 lung = system: NCI-H460 lung
NCI-H522 lung = system: NCI-H522 lung
NCI/ADR-RES ovarian = system: NCI/ADR-RES ovarian
OVCAR-3 ovarian = system: OVCAR-3 ovarian
OVCAR-4 ovarian = system: OVCAR-4 ovarian
OVCAR-5 ovarian = system: OVCAR-5 ovarian
OVCAR-8 ovarian = system: OVCAR-8 ovarian
PC-3 prostate = system: PC-3 prostate
RPMI-8226 leukemia = system: RPMI-8226 leukemia
RXF 393 renal = system: RXF 393 renal
SF-268 CNS = system: SF-268 CNS
SF-295 CNS = system: SF-295 CNS
SF-539 CNS = system: SF-539 CNS
SK-MEL-28 melanoma = system: SK-MEL-28 melanoma
SK-MEL-5 melanoma = system: SK-MEL-5 melanoma
SK-OV-3 ovarian = system: SK-OV-3 ovarian
SN12C renal = system: SN12C renal
SNB-19 CNS = system: SNB-19 CNS
SNB-75 CNS = system: SNB-75 CNS
SR leukemia = system: SR leukemia
SW-620 colon = system: SW-620 colon
T-47D breast = system: T-47D breast
TK-10 renal = system: TK-10 renal
U251 CNS = system: U251 CNS
UO-31 renal = system: UO-31 renal

CC(=O)OCC1OC(n2c(-c3ccc(Cl)cc3)cc(-c3ccccc3)c(C#N)c2=S)C(OC(C)=O)C(OC(C)=O)C1OC(C)=O (centres undefined)
TGI (786-0 renal): 24.6 µM
TGI (A549 NSCLC): 27.9 µM
TGI (ACHN renal): 26.2 µM
TGI (BT-549 breast): 17.8 µM
TGI (CAKI-1 renal): 26.9 µM
TGI (COLO 205 colon): 33 µM
TGI (DU-145 prostate): 35.6 µM
TGI (EKVX NSCLC): 31.9 µM
TGI (HCC-2998 colon): 34.7 µM
TGI (HCT-116 colon): 18.8 µM
TGI (HCT-15 colon): > 100 µM
TGI (HL-60(TB) leukemia): 17.4 µM
TGI (HOP-62 NSCLC): 20.5 µM
TGI (HOP-92 NSCLC): 40.8 µM
TGI (HS 578T breast): 10.5 µM
TGI (HT29 colon): 21.1 µM
TGI (IGROV1 ovarian): 25.8 µM
TGI (K-562 leukemia): > 100 µM
TGI (KM12 colon): 48.7 µM
TGI (LOX IMVI melanoma): 17.8 µM
TGI (M14 melanoma): 16.4 µM
TGI (MALME-3M melanoma): 7.71 µM
TGI (MCF7 breast): 67.8 µM
TGI (MDA-MB-231 breast): 15.7 µM
TGI (MDA-MB-435): 25.2 µM
TGI (MDA-N): 24.3 µM
TGI (MOLT-4 leukemia): 85.9 µM
TGI (NCI-H226 lung): 12 µM
TGI (NCI-H23 lung): 27.2 µM
TGI (NCI-H460 lung): 17.9 µM
TGI (NCI-H522 lung): 60.1 µM
TGI (NCI/ADR-RES ovarian): 21 µM
TGI (OVCAR-3 ovarian): 22.4 µM
TGI (OVCAR-4 ovarian): 3.3 µM
TGI (OVCAR-5 ovarian): 35 µM
TGI (OVCAR-8 ovarian): 23 µM
TGI (PC-3 prostate): 23.3 µM
TGI (RPMI-8226 leukemia): 43.3 µM
TGI (RXF 393 renal): 26 µM
TGI (SF-268 CNS): 25.6 µM
TGI (SF-295 CNS): 23.6 µM
TGI (SF-539 CNS): 14.6 µM
TGI (SK-MEL-28 melanoma): 23.4 µM
TGI (SK-MEL-5 melanoma): 23.5 µM
TGI (SK-OV-3 ovarian): 25.2 µM
TGI (SN12C renal): 26.3 µM
TGI (SNB-19 CNS): 20.9 µM
TGI (SNB-75 CNS): 20.8 µM
TGI (SR leukemia): 53 µM
TGI (SW-620 colon): 14.7 µM
TGI (T-47D breast): 39.5 µM
TGI (TK-10 renal): 42.2 µM
TGI (U251 CNS): 20.6 µM
TGI (UO-31 renal): 40.1 µM
